Results taken from article PMC6222871, “Suppression of Hepatitis C Virus Genome Replication and Particle Production by a Novel Diacylglycerol Acyltransferases Inhibitor” (Molecules : A Journal of Synthetic Chemistry and Natural …, 2018).
pIC50: −log10 of the molar value.

Tests used:
[1] = tested on: DGATs (rat liver microsome); set-up: method as in PMID 23141914, PMID 23242135; conditions: cited from earlier work
[2] = tested on: Huh7.5 cells; test: visualization of intracellular LD by BODIPY in Huh7.5 cells; assay type: cell-based; conditions: 8 μM, 72 h
Experimental: Huh7.5 cells were incubated in a 24-well plate on top of coverslip in the presence of either DMSO, 8 μM of 10j, or 20 μM of A922500 for 72 h. Then, Huh7.5 cells were fixed by using 4% paraformaldehyde for 15 min and stained with 0.001% BODIPY 493/503 D3922 (Invitrogen, Carlsbad, CA, USA) for 10 min. The coverslips were mounted onto slides using Prolong Gold anti-fade reagent with DAPI (Invitrogen, Carlsbad, CA, USA) Fluorescence were examined and captured by Nikon confocal laser scanning microscopic system. LD content was quantified using the ImageJ program.

[3] = tested on: Huh7.5-J6/JFH1 cells; test: immunofluorescence of dsRNA (J2 antibody) and LD (Oil-Red-O) in Huh7.5-J6/JFH1 cells; assay type: cell-based, hepatitis C virus; conditions: increasing concentrations, 72 h
Experimental: They were treated with a series of increasing concentrations of 10j for 72 h. […] Since double-stranded (ds) RNAs were regarded as a genuine marker for endogenous viral RNA synthesis due to their roles as intermediates during viral RNA replication, we wished to test effect of 10j on expression and localization of the viral dsRNAs. For this purpose, Huh7.5-J6/JFH1 cells were treated with a series of increasing concentrations of 10j for 72 h. Then, dsRNAs were visualized by using a dsRNA-specific J2 antibody. […] To study effects of 10j on localization of LDs in parallel, LDs were also co-stained in an Oil-Red-O (ORO) dye.
Immunofluorescence analysis of Huh7.5-J6/JFH1 or Huh7.5-JFH1-5A-GFP cells in the presence of 10j was conducted as previously described [35]. Fluorescence were examined and captured by Nikon confocal laser scanning microscopic system. LD content was quantified using the ImageJ program.

[4] = tested on: HCVcc particles (JFH1-NS5A-GFP); test: HCVcc infectivity and time-of-addition assay; assay type: cell-based, hepatitis C virus; conditions: pre-treatment (−2 h), co-treatment (0 h), post-treatment (+2 h); dose-dependent
Experimental: In order to test the effects of 10j on the early viral functions, such as the viral entry and uncoating of the viral genome, we performed the “time of addition” experiment by using the cell culture-derived infectious HCVcc particles (JFH1-NS5A-GFP) (Figure 4A).
The time-of-addition assay was conducted as previously reported [38]. Briefly, naïve Huh-7.5 cells were plated in 384-well plates and incubated with serially diluted 10j at specific time points during virus infection: pre-infection treatment; co-infection treatment; post-infection treatment. Afterwards, infected cells were incubated at 37 °C for 3 days in the presence of inhibitors. At 72 h post-infection, HCV infection rates and cytotoxicity were determined by the number of GFP positive cells and Hoechst 33,342 positive cell nuclei, a marker for cell viability, respectively, using fully automated confocal microscopy (Opera, PerkinElmer, Hamburg, Germany). The acquired images were analyzed by in-house developed software. Percentages of HCV inhibition were calculated using 1% DMSO-treated cells and 10 μM of sofosbuvir treated cells and were set to 0% and 100% inhibition, respectively. Experiments were conducted at least two-times independently and in triplicates.

[5] = tested on: recombinant DGAT-1; set-up: method as in PMID 23242135; conditions: recombinant DGAT-1, [14C] oleoyl-CoA as acyl-donor; cited from earlier work
[6] = tested on: Huh7.5-J6/JFH1 cells; test: immunofluorescence of NS3 and LD (BODIPY) in Huh7.5-J6/JFH1 cells; assay type: cell-based, hepatitis C virus; conditions: 72 h
Experimental: Based on previous results, we noticed that EC50 values required for inhibition of the HCV genome replication by 10j were around 1–2 μM ranges (Figure 2 and Table 3). However, IC50 value required for inhibition of the enzymatic DGAT activities in vitro by 10j was reported to be higher than 5 μM (Table 2 and Figure 6E). Based on these observations, we hypothesized that inhibition of DGATs by 10j may not play a direct role in suppression of the viral genome replication. To test this hypothesis, we decided to study effects of 10j on DGAT and the viral genome replication in a simultaneous manner. […] Then, the viral NS3 protein and LDs were visualized by using an anti-NS3 antibody and BODIPY, respectively. […] Significant reduction of LD was only seen after treatment of 10j higher than 5 μM. In order to confirm this observation, we decided to utilize another HCV-positive cell—JFH1-NS5A-GFP cells—which were infected with infectious HCV genotype 2a particles with a visually tractable NS5A due to the presence of in-frame-fused GFP protein with NS5A. TGs of these cells were stained with ORO for visualization in parallel. […] In accordance with the previous result, reduction of the NS5A-GFP protein preceded decline of TG biosynthesis (Figure 7D).
(§1) Immunofluorescence analysis of Huh7.5-J6/JFH1 or Huh7.5-JFH1-5A-GFP cells in the presence of 10j was conducted as previously described. Fluorescence were examined and captured by Nikon confocal laser scanning microscopic system. LD content was quantified using the ImageJ program.

[7] = tested on: JFH1-NS5A-GFP cells; test: NS5A-GFP and Oil Red O imaging in JFH1-NS5A-GFP cells; assay type: cell-based, hepatitis C virus; conditions: 72 h, dose-dependent
Experimental: Based on previous results, we noticed that EC50 values required for inhibition of the HCV genome replication by 10j were around 1–2 μM ranges (Figure 2 and Table 3). However, IC50 value required for inhibition of the enzymatic DGAT activities in vitro by 10j was reported to be higher than 5 μM (Table 2 and Figure 6E). Based on these observations, we hypothesized that inhibition of DGATs by 10j may not play a direct role in suppression of the viral genome replication. To test this hypothesis, we decided to study effects of 10j on DGAT and the viral genome replication in a simultaneous manner. […] Then, the viral NS3 protein and LDs were visualized by using an anti-NS3 antibody and BODIPY, respectively. […] Significant reduction of LD was only seen after treatment of 10j higher than 5 μM. In order to confirm this observation, we decided to utilize another HCV-positive cell—JFH1-NS5A-GFP cells—which were infected with infectious HCV genotype 2a particles with a visually tractable NS5A due to the presence of in-frame-fused GFP protein with NS5A. TGs of these cells were stained with ORO for visualization in parallel. […]
as §1

## O=C(NCc1ccco1)c1ccc2[nH]c(COc3ccc(C45CC6CC(CC(C6)C4)C5)cc3)nc2c1 [10j, 2-{[4-(adamant-1yl)phenoxy]methyl)-N-(furan-2-ylmethyl)-1H-benzo[d]imidazole-5-carboxamide]
[1]
  pIC50: 5.36
[2]
  reduction in the level of LDs (BODIPY): 49%
[3]
  amount of dsRNAs: significantly reduced
  expression level of total LDs (Oil-Red-O): dose-dependent reduction
[4]
  infection of Huh7.5 cells with HCVcc particles: all abrogated
[5]
  pIC50: 5.05
[6]
  concentration at which the viral NS3 protein started to disappear: 1 µM
  concentration for significant reduction of LD: higher than 5 μM
[6]; up to 2 μM
  LD levels (BODIPY): stayed unaltered
[7]
  concentration at which reduction of NS5A-GFP expression starts: 5 µM
